Experiment [1] can be described thus: suppression of NO production in INS-1E cells – cell-based, Griess absorbance, dry powder, set 3, dose response (AID 488870). The class given is functional. The note with it: Rattus norvegicus. For orientation: The Griess reaction detects nitrite, a stable product of nitric oxide.
The test system of experiment [2] is INS1. Kind of experiment: suppression of NO production in INS-1E cells – cell-based, Griess absorbance, dry powder, set 2, dose response (AID 488868). The class given is functional. The note with it: Rattus norvegicus.
Experiment [3] concerns INS1. Kind of experiment: suppression of NO production in INS-1E cells – cell-based, Griess absorbance, dry powder, dose response (AID 488866). The class given is functional. The following applies: Rattus norvegicus.
The test system of experiment [4] is INS1. Kind of experiment: INS-1E mitochondrial potential loss inhibitors – cell-based, JC-1 fluorescence, dry powder, set 2, dose response (AID 488867). It counts as functional. The note with it: Rattus norvegicus.
The subject of experiment [5] is INS1. In words: beta-cell survival under cytokine stress – INS-1E, ATP luminescence, dry powder, dose response (AID 488844). It counts as functional, cell-based. The following applies: Rattus norvegicus.
The test system of experiment [6] is INS1. Kind of experiment: INS-1E mitochondrial potential rescue under cytokines – cell-based, JC-1 fluorescence ratio, dry powder, dose response (AID 488931). The class given is functional. The note with it: Rattus norvegicus.
For another experiment, the target named is Phospholipase D1 (Homo sapiens, UniProt Q13393). Kind of experiment: cellular phospholipase D1 inhibition IC50 – cell-based, dose response (AID 602151).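 Further: cellular PLD1 assay in Calu-1 cells stimulated with PMA.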 It counts as functional.
A further experiment deals with Phospholipase D2 (Homo sapiens, UniProt O14939). Kind of experiment: cellular phospholipase D2 inhibition IC50 – cell-based, dose response (AID 602147).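 Further: cellular assay in HEK293 cells overexpressing GFP-tagged PLD2.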 It counts as functional.
Chain of Phospholipase D2 (O14939 whole entry): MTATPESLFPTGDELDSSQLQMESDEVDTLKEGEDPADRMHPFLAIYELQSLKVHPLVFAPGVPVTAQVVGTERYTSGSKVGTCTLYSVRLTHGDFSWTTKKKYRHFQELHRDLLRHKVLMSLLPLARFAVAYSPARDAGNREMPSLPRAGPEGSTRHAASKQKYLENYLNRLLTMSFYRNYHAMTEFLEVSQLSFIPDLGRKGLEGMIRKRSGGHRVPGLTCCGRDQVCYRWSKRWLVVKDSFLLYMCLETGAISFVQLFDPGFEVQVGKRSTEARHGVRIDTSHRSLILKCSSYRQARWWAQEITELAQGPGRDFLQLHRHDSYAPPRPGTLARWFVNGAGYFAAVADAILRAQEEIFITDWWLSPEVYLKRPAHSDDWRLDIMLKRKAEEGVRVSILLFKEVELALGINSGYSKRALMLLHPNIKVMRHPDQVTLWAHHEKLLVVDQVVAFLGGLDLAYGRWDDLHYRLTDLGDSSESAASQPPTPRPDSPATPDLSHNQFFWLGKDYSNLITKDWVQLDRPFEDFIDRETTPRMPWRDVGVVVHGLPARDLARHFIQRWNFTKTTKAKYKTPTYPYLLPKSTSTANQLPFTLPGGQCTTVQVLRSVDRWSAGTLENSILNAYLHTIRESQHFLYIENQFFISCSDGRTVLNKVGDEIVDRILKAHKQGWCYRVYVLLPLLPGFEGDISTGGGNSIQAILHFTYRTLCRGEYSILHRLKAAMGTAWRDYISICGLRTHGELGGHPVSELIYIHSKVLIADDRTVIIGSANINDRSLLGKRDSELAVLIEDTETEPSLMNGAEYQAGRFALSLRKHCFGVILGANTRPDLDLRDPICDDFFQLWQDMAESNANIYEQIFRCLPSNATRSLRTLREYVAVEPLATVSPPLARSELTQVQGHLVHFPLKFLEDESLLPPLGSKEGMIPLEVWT
A short description of experiment [7]: A cell-based HTS for delayed death inhibitors of the malarial parasite plastid Measured in Microorganism System Using Plate Reader - 2126-02_Inhibitor_Dose_DryPowder_Activity. The class given is functional, organism-based.
A short description of experiment [8]: A cell-based HTS for delayed death inhibitors of the malarial parasite plastid Measured in Microorganism System Using Plate Reader - 2126-01_Inhibitor_Dose_DryPowder_Activity. The class given is functional, organism-based.
Experiment [9] in a line: Vero cell cytotoxicity, dose response, cytotoxicity control for M. tuberculosis growth inhibitor project, Vero cells, purified and synthesized compounds, set 4 (AID 504854). The class given is functional. The following applies: Mycobacterium tuberculosis.
In experiment [10] the target is Casein kinase I isoform alpha (Homo sapiens, UniProt P48729). The class given is functional.
In experiment [11] the target is Protein kinase C delta type (Homo sapiens, UniProt Q05655). The class given is functional.
Chain of Protein kinase C delta type (Q05655 whole entry): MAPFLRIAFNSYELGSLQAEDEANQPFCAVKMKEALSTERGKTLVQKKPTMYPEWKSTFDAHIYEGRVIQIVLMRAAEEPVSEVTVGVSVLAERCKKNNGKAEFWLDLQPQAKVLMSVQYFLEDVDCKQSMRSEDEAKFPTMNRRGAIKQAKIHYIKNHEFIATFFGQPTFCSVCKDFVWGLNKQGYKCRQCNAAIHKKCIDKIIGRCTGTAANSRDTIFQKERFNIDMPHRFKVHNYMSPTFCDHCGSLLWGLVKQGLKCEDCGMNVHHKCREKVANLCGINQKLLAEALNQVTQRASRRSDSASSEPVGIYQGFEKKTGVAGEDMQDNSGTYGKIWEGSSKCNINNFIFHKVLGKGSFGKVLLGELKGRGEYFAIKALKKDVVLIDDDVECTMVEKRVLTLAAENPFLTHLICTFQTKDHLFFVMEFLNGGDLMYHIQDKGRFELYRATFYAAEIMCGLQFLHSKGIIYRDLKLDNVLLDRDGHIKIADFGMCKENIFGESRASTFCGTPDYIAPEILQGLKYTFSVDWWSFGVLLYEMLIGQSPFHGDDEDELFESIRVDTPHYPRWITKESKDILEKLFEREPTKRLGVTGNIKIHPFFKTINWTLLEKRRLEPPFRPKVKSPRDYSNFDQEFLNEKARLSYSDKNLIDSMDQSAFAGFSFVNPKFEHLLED
In experiment [12] the target is Serine/threonine-protein kinase TAO1 (Homo sapiens, UniProt Q7L7X3). It counts as functional.
Chain of Serine/threonine-protein kinase TAO1 (Q7L7X3 whole entry): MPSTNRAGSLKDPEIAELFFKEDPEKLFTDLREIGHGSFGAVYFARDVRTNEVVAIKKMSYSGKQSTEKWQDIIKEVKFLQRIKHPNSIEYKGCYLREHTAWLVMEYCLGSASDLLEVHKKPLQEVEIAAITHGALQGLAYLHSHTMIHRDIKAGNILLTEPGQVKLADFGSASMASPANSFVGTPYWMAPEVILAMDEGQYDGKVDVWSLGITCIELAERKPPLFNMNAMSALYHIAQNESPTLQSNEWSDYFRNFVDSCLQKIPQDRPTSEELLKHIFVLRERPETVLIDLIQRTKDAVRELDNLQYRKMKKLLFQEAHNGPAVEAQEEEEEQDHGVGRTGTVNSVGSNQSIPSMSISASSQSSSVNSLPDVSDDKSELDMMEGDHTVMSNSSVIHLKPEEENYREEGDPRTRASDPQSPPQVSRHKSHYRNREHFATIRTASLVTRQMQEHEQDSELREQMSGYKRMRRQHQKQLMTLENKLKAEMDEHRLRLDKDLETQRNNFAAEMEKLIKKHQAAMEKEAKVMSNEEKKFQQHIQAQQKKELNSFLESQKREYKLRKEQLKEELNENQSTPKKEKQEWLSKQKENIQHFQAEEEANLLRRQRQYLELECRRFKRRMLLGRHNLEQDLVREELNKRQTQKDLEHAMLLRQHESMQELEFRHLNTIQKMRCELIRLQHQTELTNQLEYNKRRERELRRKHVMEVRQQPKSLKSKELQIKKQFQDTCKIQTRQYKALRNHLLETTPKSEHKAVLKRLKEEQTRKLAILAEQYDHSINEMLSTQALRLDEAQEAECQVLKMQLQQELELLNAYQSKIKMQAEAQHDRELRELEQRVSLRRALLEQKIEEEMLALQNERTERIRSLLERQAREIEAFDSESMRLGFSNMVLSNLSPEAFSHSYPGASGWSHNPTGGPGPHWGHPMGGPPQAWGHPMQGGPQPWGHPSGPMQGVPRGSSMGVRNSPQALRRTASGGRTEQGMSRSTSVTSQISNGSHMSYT
Experiment [13] deals with Calcium/calmodulin-dependent protein kinase type II subunit beta (Homo sapiens, UniProt Q13554). It counts as functional.
The target of experiment [14] is Serine/threonine-protein kinase PAK 1 (Homo sapiens, UniProt Q13153). It counts as functional.
Chain of Serine/threonine-protein kinase PAK 1 (Q13153 whole entry): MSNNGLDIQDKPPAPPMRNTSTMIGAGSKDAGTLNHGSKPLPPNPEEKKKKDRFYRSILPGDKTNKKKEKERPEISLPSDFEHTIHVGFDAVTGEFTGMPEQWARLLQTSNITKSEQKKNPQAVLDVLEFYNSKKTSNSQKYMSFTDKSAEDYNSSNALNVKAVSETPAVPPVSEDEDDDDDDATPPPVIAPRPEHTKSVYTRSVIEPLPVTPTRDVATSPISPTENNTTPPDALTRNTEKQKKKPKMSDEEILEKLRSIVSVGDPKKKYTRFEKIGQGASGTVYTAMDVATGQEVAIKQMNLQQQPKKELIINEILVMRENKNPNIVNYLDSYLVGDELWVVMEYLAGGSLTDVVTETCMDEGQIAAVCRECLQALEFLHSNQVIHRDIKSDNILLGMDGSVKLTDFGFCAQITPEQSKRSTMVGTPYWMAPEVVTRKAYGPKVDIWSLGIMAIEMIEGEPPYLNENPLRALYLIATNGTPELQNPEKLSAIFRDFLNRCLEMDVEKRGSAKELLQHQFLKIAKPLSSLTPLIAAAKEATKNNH
Experiment [15] deals with Calcium/calmodulin-dependent protein kinase type II subunit gamma (Homo sapiens, UniProt Q13555). It counts as functional.
Chain of Calcium/calmodulin-dependent protein kinase type II subunit gamma (Q13555 whole entry, canonical isoform): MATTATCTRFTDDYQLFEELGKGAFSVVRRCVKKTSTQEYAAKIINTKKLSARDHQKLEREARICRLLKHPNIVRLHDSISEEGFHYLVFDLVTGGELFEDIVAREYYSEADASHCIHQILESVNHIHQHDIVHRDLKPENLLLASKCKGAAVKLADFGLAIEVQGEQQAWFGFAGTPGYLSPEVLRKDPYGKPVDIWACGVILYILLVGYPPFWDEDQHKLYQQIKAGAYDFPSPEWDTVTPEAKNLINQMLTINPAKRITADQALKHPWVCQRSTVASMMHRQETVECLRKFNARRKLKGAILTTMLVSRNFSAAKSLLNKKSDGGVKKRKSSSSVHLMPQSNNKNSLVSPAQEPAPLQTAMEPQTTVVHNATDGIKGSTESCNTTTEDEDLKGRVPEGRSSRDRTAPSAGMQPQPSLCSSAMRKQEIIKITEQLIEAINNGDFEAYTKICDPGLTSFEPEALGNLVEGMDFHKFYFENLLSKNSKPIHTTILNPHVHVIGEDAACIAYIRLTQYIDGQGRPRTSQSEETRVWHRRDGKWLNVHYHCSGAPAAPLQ
In experiment [16] the target is Casein kinase I isoform delta (Homo sapiens, UniProt P48730). It counts as functional.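 Further: measured as one member (CSNK1D) of a kinome panel.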
Chain of Casein kinase I isoform delta (P48730 whole entry, canonical isoform): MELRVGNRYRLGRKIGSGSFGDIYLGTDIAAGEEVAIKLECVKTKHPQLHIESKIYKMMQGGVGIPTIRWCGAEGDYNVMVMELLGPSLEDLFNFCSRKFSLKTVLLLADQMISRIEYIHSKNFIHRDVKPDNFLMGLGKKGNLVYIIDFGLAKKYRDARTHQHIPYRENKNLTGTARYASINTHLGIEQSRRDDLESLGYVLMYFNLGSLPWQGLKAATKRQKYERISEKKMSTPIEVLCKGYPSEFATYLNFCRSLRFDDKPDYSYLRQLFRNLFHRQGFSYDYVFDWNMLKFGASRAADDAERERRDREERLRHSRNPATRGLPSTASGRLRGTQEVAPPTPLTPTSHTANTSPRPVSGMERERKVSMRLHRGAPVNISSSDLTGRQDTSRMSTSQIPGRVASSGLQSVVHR
Experiment [17] has as its target Calcium/calmodulin-dependent protein kinase type II subunit delta (Homo sapiens, UniProt Q13557). It counts as functional.
Experiment [18] deals with Latent membrane protein 1 (Human herpesvirus 4 (strain B95-8), UniProt P03230). Kind of experiment: LMP1 TES1 pathway selectivity over dsRED control – imaging, HEK293T, dual-color eGFP/dsRED, cherry-picks, selectivity assay for LMP1 NF-kB inhibitor project, dose response (AID 588398). It counts as functional, cell-based.
Chain of Latent membrane protein 1 (P03230 whole entry): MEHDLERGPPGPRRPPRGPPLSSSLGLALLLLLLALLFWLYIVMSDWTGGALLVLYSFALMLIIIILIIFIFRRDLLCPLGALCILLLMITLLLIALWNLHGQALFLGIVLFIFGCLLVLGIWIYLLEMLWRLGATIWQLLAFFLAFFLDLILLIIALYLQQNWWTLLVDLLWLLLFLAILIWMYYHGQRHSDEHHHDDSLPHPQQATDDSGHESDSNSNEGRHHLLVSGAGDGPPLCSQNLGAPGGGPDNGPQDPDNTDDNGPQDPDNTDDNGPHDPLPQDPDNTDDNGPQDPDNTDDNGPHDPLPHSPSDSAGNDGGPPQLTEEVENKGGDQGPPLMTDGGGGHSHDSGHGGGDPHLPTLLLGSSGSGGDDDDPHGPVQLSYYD
A further experiment deals with Aurora kinase A (Homo sapiens, UniProt O14965). The class given is functional.
Chain of Aurora kinase A (O14965 whole entry): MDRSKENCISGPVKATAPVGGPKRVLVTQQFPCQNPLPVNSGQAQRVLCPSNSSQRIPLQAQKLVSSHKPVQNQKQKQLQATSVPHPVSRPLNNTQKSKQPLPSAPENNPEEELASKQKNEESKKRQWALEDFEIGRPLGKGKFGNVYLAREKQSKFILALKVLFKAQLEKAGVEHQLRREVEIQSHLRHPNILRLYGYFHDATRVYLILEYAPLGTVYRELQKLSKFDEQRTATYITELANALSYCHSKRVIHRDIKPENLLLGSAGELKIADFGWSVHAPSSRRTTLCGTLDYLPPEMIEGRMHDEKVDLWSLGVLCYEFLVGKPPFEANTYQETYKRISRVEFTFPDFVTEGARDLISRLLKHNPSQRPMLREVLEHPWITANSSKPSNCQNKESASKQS
The target of the next experiment is Aurora kinase B (Homo sapiens, UniProt Q96GD4). The class given is functional.
Experiment [19] deals with Vascular endothelial growth factor receptor 2 (Homo sapiens, UniProt P35968). It counts as functional.

The source made the active and inactive calls. A value given as a limit tells only on which side of the number the result lay.

`C[C@@H]1CN([C@@H](C)CO)C(=O)c2cccc(NC(=O)Nc3cccc4ccccc34)c2O[C@H]1CN(C)S(=O)(=O)c1cccc(F)c1`: the AC50 in [1] is 22.9 µM (active); with INS1 [2] it was 29.6 µM (active); in the experiment with INS1 [3], 32.1 µM (active).

On to `C[C@@H]1CN([C@@H](C)CO)C(=O)c2cccc(NC(=O)Nc3cccc4ccccc34)c2O[C@H]1CN(C)S(=O)(=O)c1ccc2c(c1)OCC2`, for which the half-maximal activity concentration (AC50) was 29.8 µM (active) in the experiment on INS1 [4], 25.2 µM (active) in experiment [1], 67.9 µM (active) in the experiment with INS1 [5] and > 195 µM (inactive) in the experiment with INS1 [6].

`C[C@@H](CN1CCC(n2c(=O)[nH]c3ccccc32)CC1)NC(=O)CCc1ccc(F)cc1`: the results for the IC50 on Phospholipase D1 and at Phospholipase D2 were 0.26 µM (active) and 9 µM (active), respectively.

Consider `C[C@@H]1CN([C@@H](C)CO)C(=O)c2cc(NC(=O)Nc3ccccc3)ccc2O[C@@H](C)CCCCO[C@H]1CN(C)C(=O)OC(C)(C)C`, for which the AC50 in experiment [7] was 1.37 µM (active); in experiment [8], 2.41 µM (active).

On to `CCC(Sc1nc2ccccc2c(=O)[nH]1)C(=O)Nc1cccc(OC)c1` (centres undefined), for which the cytotoxic concentration (CC50) in experiment [9] was > 100 µM (active).

Regarding `CCCCOc1ccccc1CCc1cccc2nc(N)nc(N)c12`, the inhibition constant Ki in [10] is 1.58 µM (active); in experiment [11], 5.01 µM (active); in [12] it was 10 µM (active); in experiment [13] it was 2.51 µM (active); in [14], 3.16 µM (active); in [15], 3.16 µM (active). The Ki in [16] is 3.98 µM (active); in experiment [17], 5.01 µM (active).

In the case of `Cc1ccc(/C=N/NC(=O)c2cc(-c3ccccc3)nc3ccccc23)o1`, the AC50 in experiment [18] is 27.2 µM (active).

For `COc1cc(-c2ccc3c(c2)Nc2cc(OCCCCO)c(OC)cc2NC3=O)ccc1O`, the Ki at Aurora kinase A was 1.26 µM (active); at Aurora kinase B, 1.58 µM (active); in experiment [19], 3.98 µM (active).

As a reminder, the AC50 is the concentration at which the activity in the assay is half-maximal. In general, IC50 refers to the concentration that gives 50% inhibition. The term CC50 denotes the concentration that lowers cell viability or growth by half. One may read the Ki as the dissociation constant of the complex between target and ligand, obtained from inhibition or displacement.

The record behind these values is ChEMBL document CHEMBL1201862, “PubChem BioAssay data set” (2004).
